Experimental data as given in patent US11135212B2, “Method for treating osteoporosis, osteopenia or low bone mineral density” (Altum Pharmaceuticals Inc., priority 2009, dated 2021).

Legend:
TRAP gene expression = experiment: Osteoclast marker gene expression by real time RT-PCR: TRAP; type: cell-based, mouse (C57BL/6); settings: osteoclasts treated with drug vs DMSO; FIG. 2
Procedure: (§1) Mouse bone marrow cells were flushed out from femora and tibiae of two 1-2-month old mice (C57BL/6), plated in culture medium (alpha MEM supplemented with 10% heat-inactivated fetal bovine serum, 100 international units/ml penicillin, 100 μg/ml streptomycin, and 2 mM L-glutamine) in a 100-mm dish, and incubated at 37° C. in 5% CO2 overnight. The next day, the non-adherent cells were pelleted and seeded at a density of 200,000 cells/cm^2. Then the osteoclast precursors were cultured in the presence of sRANKL (30 ng/ml) and M-CSF (30 ng/ml), and were treated with either tris(8-quinolinolato)gallium(III) or GaNO3 or DMSO (as a control). The medium was changed at day 3 to obtain mature osteoclasts at day 6. […] At the end of the treatment, the osteoclast preparations were stained for TRAP activity using a leukocyte acid phosphatase kit from Sigma and counted for TRAP-staining multinucleated cells. […] The number of cells having more than 3 nuclei was counted.
(§2) RNA was also isolated for gene expression analysis of osteoclast marker genes (TRAP, cathepsin K and NFAT2). Total RNA was extracted from osteoclasts treated with DMSO or tris(8-quinolinolato)gallium(III), and mRNAs were measured using real time RT-PCR. The relative levels of mRNAs were normalized to β-actin and then expressed as fold stimulation over DMSO-treated cells.

[1] = test system: cathepsin K gene expression; experiment: Osteoclast marker gene expression by real time RT-PCR: cathepsin K; type: cell-based, mouse (C57BL/6); settings: osteoclasts treated with drug vs DMSO; FIG. 2
Procedure: as §1, §2

ovariectomized rats [2] = experiment: Serum osteocalcin by ELISA in ovariectomized rats; type: in vivo, Sprague-Dawley female rats; settings: daily drug (15 mg/kg oral, day one through day five of each week), FIG. 4
Procedure: (§3) The Sprague-Dawley female rats (100-125 gram, about 12 weeks old) were purchased from Taconic (Hudson, N.Y.). They were divided into 5 groups of 8 rats each. Four groups were ovariectomized, and one group was sham-operated. The rats were treated in the following manner: Group 1 ovariectomized rats were orally administered day one through day five of each week with 15 mg/kg tris(8-quinolinolato)gallium(III) (“daily”); Group 2 ovariectomized rats were treated with 75 mg/kg tris(8-quinolinolato)gallium(III) on day one of each week (“weekly”); Group 3 ovariectomized rats were treated with 38 mg/kg Ga(NO3)3 on day one of each week (“weekly”); Group 4 ovariectomized rats were treated with vehicle only (0.1% carboxymethylcellulose); Group 5 rats were sham-operated and were administered with vehicle only (0.1% carboxymethylcellulose). At the end of the experiment (32 days after the first administration of the compounds), the animals were anesthetized. Areal bone mineral density (BMD) and bone mineral content (BMC) were measured for the tibiae by dual-energy X-ray absorptiometry using an X-ray pixiMUS mouse densitometer.
Blood was drawn from the rats and left at room temperature for at least 30 minutes before centrifuging at 200×g for 10 minutes to separate sera. Serum was used for the measurement of serum markers including osteocalcin. Osteocalcin was measured by ELISA. […]

ovariectomized rats [3] = experiment: Tibial bone mineral density by dual-energy X-ray absorptiometry in ovariectomized rats; type: in vivo, Sprague-Dawley female rats; settings: 15 mg/kg oral, day one through day five of each week (daily), 32 days after first administration; FIG. 3
Procedure: as §3

NFAT2 gene expression = experiment: Osteoclast marker gene expression by real time RT-PCR: NFAT2; type: cell-based, mouse (C57BL/6); settings: osteoclasts treated with drug vs DMSO; FIG. 2
Procedure: as §1, §2

[4] = test system: osteoclast precursors (mouse bone marrow cells); experiment: Osteoclast differentiation/formation: count of TRAP-staining multinucleated cells from osteoclast precursors cultured with sRANKL and M-CSF; type: cell-based, mouse (C57BL/6); settings: 0.2 nM to 100 μM, day 6, TRAP-stained cells with more than 3 nuclei; p<0.05 compared with DMSO and GaNO3 (3.9 μM, 39 μM); FIG. 1
Procedure: Mouse bone marrow cells were flushed out from femora and tibiae of two 1-2-month old mice (C57BL/6), plated in culture medium (alpha MEM supplemented with 10% heat-inactivated fetal bovine serum, 100 international units/ml penicillin, 100 μg/ml streptomycin, and 2 mM L-glutamine) in a 100-mm dish, and incubated at 37° C. in 5% CO2 overnight. The next day, the non-adherent cells were pelleted and seeded at a density of 200,000 cells/cm^2. Then the osteoclast precursors were cultured in the presence of sRANKL (30 ng/ml) and M-CSF (30 ng/ml), and were treated with either tris(8-quinolinolato)gallium(III) or GaNO3 or DMSO (as a control). The medium was changed at day 3 to obtain mature osteoclasts at day 6. For treatment with tris(8-quinolinolato)gallium(III), a drug stock solution prepared by dissolving tris(8-quinolinolato)gallium(III) in DMSO was added to the cell cultures to arrive at final concentrations of 0.2 nM, 2 nM, 0.02 μM, 0.2 μM, 2 μM, 20 μM, 50 μM, or 100 μM. At the end of the treatment, the osteoclast preparations were stained for TRAP activity using a leukocyte acid phosphatase kit from Sigma and counted for TRAP-staining multinucleated cells. Specifically, TRAP staining was performed and five areas of each well were photographed. The number of cells having more than 3 nuclei was counted.

SMILES: [Ga+3].[O-]c1cccc2cccnc12.[O-]c1cccc2cccnc12.[O-]c1cccc2cccnc12 [tris(8-quinolinolato)gallium(III)]
- TRAP gene expression (mRNA normalized to β-actin, fold over DMSO-treated cells) (TRAP gene expression): significantly inhibited
- cathepsin K gene expression (mRNA normalized to β-actin, fold over DMSO-treated cells) [1]: significantly inhibited
- serum osteocalcin compared to ovariectomized rats treated with vehicle only (ovariectomized rats [2]): significantly associated with reduced serum osteocalcin
- bone mineral density (tibiae) compared to ovariectomized untreated rats (ovariectomized rats [3]): increased bone mineral density
- NFAT2 gene expression (mRNA normalized to β-actin, fold over DMSO-treated cells) (NFAT2 gene expression): significantly inhibited
- fusion of osteoclast precursors into multinucleated cells (osteoclast differentiation/formation) [4]: significantly inhibits
